Results published in patent publication US12569502B2, “Use of bile acids and derivatives thereof in preparation of GPR39 agonist” (PEKING UNIVERSITY, priority 2019, dated 2026).
Where a chain is given by its changes, count along the chain named. Like-named read-outs stand apart in the source and are kept apart here.

Assays:
GPR39 mutant E90A = target: T1, GPR39 mutant E90A (Mus musculus, UniProt Q5U431, E90A); assay: Calcium imaging of GPR39 activation site mutant, transiently transfected cells; format: cell-based; conditions: FIG. 7
T1 construct: 3HA (N); P2A-mCherry (C); expressed in transfected cells; host or cells: HEK293T, transient (Lipofectamine 3000)
T1 sequence (Q5U431 1-456 E90A): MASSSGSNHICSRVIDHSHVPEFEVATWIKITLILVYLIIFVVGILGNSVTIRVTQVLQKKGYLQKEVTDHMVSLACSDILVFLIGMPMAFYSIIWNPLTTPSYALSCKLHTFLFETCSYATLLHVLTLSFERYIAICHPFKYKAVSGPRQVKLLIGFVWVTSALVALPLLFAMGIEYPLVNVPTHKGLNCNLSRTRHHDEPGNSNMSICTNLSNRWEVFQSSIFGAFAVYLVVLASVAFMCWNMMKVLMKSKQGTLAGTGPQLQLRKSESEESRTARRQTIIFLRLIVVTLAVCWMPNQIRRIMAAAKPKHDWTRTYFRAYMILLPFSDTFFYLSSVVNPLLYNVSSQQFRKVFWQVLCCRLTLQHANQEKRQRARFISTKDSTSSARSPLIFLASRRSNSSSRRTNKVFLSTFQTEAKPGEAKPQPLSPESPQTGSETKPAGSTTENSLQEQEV
Text: (§1) GPR39 mutants E90A, F115A, E116A and D330A were firstly constructed according to the method of Example 5.

GPR39 mutant E116A = target: T2, GPR39 mutant E116A (Mus musculus, UniProt Q5U431, E116A); assay: as above; format: cell-based; conditions: FIG. 7
T2 construct: 3HA (N); P2A-mCherry (C); expressed in transfected cells; host or cells: HEK293T, transient (Lipofectamine 3000)
T2 sequence (Q5U431 1-456 E116A): T1 sequence (Q5U431 1-456 E90A) with A90E, E116A
Text: as §1

[1] = target: T3, Motilin receptor (MLNR, NP_001498.1) (Homo sapiens, UniProt O43193); assay: Confocal calcium imaging of Ghrelin receptor family, overexpressed in HEK293T cells; format: cell-based; conditions: 200 μM
T3 construct: mCherry; host or cells: HEK293T, transient
T3 sequence (O43193 whole entry): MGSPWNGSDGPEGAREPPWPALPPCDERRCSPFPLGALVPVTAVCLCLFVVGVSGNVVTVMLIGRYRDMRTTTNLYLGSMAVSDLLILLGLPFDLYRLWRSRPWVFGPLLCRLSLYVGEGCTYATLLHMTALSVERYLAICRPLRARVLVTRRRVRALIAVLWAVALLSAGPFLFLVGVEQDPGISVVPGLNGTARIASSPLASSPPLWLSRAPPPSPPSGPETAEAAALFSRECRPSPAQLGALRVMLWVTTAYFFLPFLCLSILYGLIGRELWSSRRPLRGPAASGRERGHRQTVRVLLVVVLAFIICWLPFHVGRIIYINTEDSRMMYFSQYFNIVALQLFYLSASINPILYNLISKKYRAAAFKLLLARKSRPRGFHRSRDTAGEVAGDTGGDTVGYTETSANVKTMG
Method: (§2) According to the transient transfection method of Example 5.2, the 6 receptors of Ghrelin family except GPR39 were overexpressed in HEK293T cells respectively (the expression vectors for these 6 receptors came from the research group of Rao Yi, Peking University), and calcium dye was incubated. An inverted laser confocal microscope (leica Co.) was used to detect the activation of the 6 receptors of Ghrelin family by LCAS. The specific operations were as below: placing the cells to be detected on the microscope stage, detecting the fluorescence signal value of the calcium dye Fluo8 with the 488 nm channel, and detecting the fluorescence signal value of mCherry with the 543 nm channel. All receptors fused to express the red fluorescence protein mCherry, and the expression of receptors was determined by detecting the red fluorescence emitted from mCherry.

[2] = target: T4, Ghrelin receptor (GHSR, NP_940799.1) (Homo sapiens, UniProt Q92847); assay: as above; format: cell-based; conditions: 200 μM
T4 construct: mCherry; host or cells: HEK293T, transient
T4 sequence (Q92847 whole entry): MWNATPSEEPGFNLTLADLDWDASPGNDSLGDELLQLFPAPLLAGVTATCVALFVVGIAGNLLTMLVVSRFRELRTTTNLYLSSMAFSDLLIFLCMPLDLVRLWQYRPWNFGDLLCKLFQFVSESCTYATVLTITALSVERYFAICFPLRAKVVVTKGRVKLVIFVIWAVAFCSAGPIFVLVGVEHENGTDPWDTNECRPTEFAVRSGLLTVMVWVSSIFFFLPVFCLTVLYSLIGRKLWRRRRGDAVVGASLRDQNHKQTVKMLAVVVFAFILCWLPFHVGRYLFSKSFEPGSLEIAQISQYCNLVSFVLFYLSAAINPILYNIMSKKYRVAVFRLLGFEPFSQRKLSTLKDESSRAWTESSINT
Method: as §2

[3] = target: T5, Neuromedin-U receptor 2 (NMUR2, NP_064552.3) (Homo sapiens, UniProt Q9GZQ4); assay: as above; format: cell-based; conditions: 200 μM
T5 construct: mCherry; host or cells: HEK293T, transient
T5 sequence (Q9GZQ4 whole entry): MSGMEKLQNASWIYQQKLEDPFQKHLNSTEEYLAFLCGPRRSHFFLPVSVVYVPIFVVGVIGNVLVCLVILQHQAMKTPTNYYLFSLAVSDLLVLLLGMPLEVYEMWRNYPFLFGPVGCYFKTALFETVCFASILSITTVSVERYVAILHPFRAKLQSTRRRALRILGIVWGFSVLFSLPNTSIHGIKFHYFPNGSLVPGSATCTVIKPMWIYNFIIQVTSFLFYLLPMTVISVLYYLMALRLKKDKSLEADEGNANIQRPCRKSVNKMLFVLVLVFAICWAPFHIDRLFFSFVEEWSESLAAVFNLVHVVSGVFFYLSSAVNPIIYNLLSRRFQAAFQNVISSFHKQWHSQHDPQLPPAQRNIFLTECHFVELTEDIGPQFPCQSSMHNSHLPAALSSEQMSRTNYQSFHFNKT
Method: as §2

[4] = target: T6, Neurotensin receptor 2 (NTSR2, NP_036476.2) (Homo sapiens, UniProt O95665); assay: as above; format: cell-based; conditions: 200 μM
T6 construct: mCherry; host or cells: HEK293T, transient
T6 sequence (O95665 whole entry): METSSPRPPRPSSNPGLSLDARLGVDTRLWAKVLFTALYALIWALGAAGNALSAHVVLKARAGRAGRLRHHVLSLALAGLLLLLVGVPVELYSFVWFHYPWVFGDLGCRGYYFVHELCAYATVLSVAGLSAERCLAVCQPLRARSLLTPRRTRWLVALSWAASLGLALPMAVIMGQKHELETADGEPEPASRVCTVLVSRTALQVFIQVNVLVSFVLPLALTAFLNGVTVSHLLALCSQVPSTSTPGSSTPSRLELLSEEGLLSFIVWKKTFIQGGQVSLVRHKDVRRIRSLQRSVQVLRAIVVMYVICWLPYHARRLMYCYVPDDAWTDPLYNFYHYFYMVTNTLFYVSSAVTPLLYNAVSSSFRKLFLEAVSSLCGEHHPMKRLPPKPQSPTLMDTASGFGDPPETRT
Method: as §2

[5] = target: T7, Neurotensin receptor 1 (NTSR1, NP_002522.2) (Homo sapiens, UniProt P30989); assay: as above; format: cell-based; conditions: 200 μM
T7 construct: mCherry; host or cells: HEK293T, transient
T7 sequence (P30989 whole entry): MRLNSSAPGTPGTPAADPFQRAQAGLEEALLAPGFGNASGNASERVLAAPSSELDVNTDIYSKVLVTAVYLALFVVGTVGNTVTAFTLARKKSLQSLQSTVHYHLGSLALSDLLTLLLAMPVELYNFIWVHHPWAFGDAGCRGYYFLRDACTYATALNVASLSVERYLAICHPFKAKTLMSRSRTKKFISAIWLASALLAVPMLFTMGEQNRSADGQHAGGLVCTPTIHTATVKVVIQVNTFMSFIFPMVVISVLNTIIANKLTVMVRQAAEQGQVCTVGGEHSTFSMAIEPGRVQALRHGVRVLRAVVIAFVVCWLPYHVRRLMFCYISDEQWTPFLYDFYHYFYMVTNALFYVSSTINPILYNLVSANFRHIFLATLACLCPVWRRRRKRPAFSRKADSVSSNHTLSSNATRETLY
Method: as §2

[6] = target: T8, Neuromedin-U receptor 1 (NMUR1, NP_006047.3) (Homo sapiens, UniProt Q9HB89); assay: as above; format: cell-based; conditions: 200 μM
T8 construct: mCherry; host or cells: HEK293T, transient
T8 sequence (Q9HB89 1-426): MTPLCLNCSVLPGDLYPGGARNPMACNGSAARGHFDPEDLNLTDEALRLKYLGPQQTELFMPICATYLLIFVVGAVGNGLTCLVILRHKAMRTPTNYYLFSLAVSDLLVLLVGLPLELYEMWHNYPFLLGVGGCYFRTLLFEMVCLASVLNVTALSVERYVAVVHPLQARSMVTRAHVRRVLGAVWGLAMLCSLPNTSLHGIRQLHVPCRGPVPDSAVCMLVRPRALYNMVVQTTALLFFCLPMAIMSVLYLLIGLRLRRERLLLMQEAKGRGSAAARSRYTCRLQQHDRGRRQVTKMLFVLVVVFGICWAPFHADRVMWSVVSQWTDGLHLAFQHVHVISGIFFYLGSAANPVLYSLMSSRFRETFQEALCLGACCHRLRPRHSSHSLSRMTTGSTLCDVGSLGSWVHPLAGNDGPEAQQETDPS
Method: as §2

GPR39 [7] = target: T9, GPR39 (Homo sapiens, UniProt O43194); conditions: cell line that transiently or stably expresses GPR39; read-out: cAMP elevation EC50; cited from earlier work
T9 sequence (O43194 1-453): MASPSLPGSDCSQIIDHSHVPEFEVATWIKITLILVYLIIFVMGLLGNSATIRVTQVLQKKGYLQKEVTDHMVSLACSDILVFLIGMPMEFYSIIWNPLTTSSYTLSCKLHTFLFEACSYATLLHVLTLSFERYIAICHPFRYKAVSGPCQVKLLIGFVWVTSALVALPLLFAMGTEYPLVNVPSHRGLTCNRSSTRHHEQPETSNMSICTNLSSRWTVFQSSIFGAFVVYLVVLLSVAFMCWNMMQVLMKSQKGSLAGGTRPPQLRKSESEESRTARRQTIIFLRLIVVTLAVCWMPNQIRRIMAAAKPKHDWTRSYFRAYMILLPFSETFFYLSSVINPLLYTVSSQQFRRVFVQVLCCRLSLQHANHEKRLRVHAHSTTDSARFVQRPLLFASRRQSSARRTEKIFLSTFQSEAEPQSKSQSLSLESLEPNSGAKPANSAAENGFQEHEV

GPR39 [8] = target: T9, GPR39; conditions: cell line that transiently or stably expresses GPR39; read-out: phosphoinositide accumulation EC50; cited from earlier work

Structure (SMILES) | activation of mutant E90A (calcium imaging) (GPR39 mutant E90A) | activation of mutant E116A (calcium imaging) (GPR39 mutant E116A) | activation of MLNR (calcium imaging) [1] | activation of GHSR (calcium imaging) [2] | activation of NMUR2 (calcium imaging) [3] | activation of NTSR2 (calcium imaging) [4] | activation of NTSR1 (calcium imaging) [5] | activation of NMUR1 (calcium imaging) [6] | EC50 (GPR39 [7]) [µM] | EC50 (GPR39 [8]) [µM]
C[C@H](CCC(=O)O)[C@H]1CC[C@H]2[C@@H]3CC[C@@H]4C[C@H](OS(=O)(=O)O)CC[C@]4(C)[C@H]3CC[C@]12C [LCAS] | activated | activated | cannot be activated | cannot be activated | cannot be activated | cannot be activated | cannot be activated | cannot be activated |  | 
[Zn+2] [Zinc ions, reference compound] |  |  |  |  |  |  |  |  | 7.4 | 22
